In US20260069619A1, “Treatment of Dry Eye Disease Using Mitochondrially Targeted Antioxidants” (MITOTECH S.A., priority 2022, published 2026):

Assays:
[1] = test system: subjects with dry eye syndrome; test: VISTA-2 clinical study (NCT04206020): central corneal fluorescein staining; assay type: in vivo, human; conditions: for Change from baseline in central fluorescein staining, LS Mean: 1.55 μg/mL SkQ1, ITT subgroup, observed data only
Procedure: The VISTA-2 (NCT04206020) clinical study reported results of a dose of 1.55 μg/mL SkQ1 compared to placebo (vehicle). VISTA-2 reported a measured change of ocular discomfort scale. The scale ranged from 0 to 4 with 0=no discomfort and 4=constant discomfort from baseline to Day 57. VISTA-2 reported a measured change of level of conjunctival fluorescein staining (sum of temporal and nasal regions). The scale in each region ranged from 0 to 4, with 0=no staining and 4=confluent staining from baseline to day 57. Study subjects were carefully monitored for any adverse events.
(§1) In addition to the reported data, observed data collected during the VISTA-1 and VISTA-2 clinical studies were analyzed in an ITT subgroup with an unanesthetized Schirmer's Test ≥7 mm at baseline (initial evaluation).
(§2) In both VISTA-1 and VISTA-2, post-hoc analyses were conducted on observed data for the ITT subgroup including subjects with an unanesthetized Schirmer's test score of ≥7 mm at baseline, with observed data only to evaluate change from baseline in central fluorescein staining. Table 4 summarizes the results for subjects with unanesthetized Schirmer's test score of […] at baseline. […] In VISTA-2, with increased sample size, significant improvement was confirmed in this subgroup (pANCOVA=0.0168). In Table 4, the change from baseline in central fluorescein staining for the ITT subgroup with unanesthetized Schirmer's test score of ≥7 mm at baseline is provided with observed data only.
(§3) A similar subgroup, as described above, was also analyzed in post-hoc analyses for both VISTA-1 and VISTA-2 to evaluate the proportion of subjects with clearing of corneal fluorescein staining in the central region. […] In VISTA-2, with increased sample size, significant improvement was confirmed (pLogistic regression=0.0049, pPearson chi-squared=0.0033, pFisher's exact test=0.0037). In Table 5, the proportion of study subjects with clearing of corneal fluorescein staining in the central corneal region, for the ITT Subgroup with unanesthetized Schirmer's test score of ≥7 mm at baseline is presented, with observed data only.

[2] = test system: subjects with dry eye syndrome; test: VISTA-2 clinical study: best corrected visual acuity (BCVA-logMAR); assay type: in vivo, human; conditions: blurred vision [OSDI 4]≥1, poor vision [OSDI 5]≥1 at baseline
Excerpt: Visual acuity can be measured by a health care provider to provide a sign of DED. The visual acuity can be a best corrected visual acuity (BCVA) of an eye or of both eyes. A logarithm of the minimum angle of resolution (LogMAR) chart such, for example, a Bailey-Lovie chart or an Early Treatment Diabetic Retinopathy Study chart can be utilized to measure BCVA. The number of letters read correctly by a subject can be converted to logMAR scores. The VISTA-2 (NCT04206020) clinical study reported results of a dose of 1.55 μg/mL SkQ1 compared to placebo (vehicle). VISTA-2 reported a measured change of ocular discomfort scale. The scale ranged from 0 to 4 with 0=no discomfort and 4=constant discomfort from baseline to Day 57. VISTA-2 reported a measured change of level of conjunctival fluorescein staining (sum of temporal and nasal regions). The scale in each region ranged from 0 to 4, with 0=no staining and 4=confluent staining from baseline to day 57. Study subjects were carefully monitored for any adverse events. [table] In VISTA-2, change from baseline in BCVA using a logMAR (BCVA-logMAR) at Visit 3 was evaluated in the ITT subgroup including subjects with Schirmer's test score ≥7 mm, blurred vision [OSDI 4]≥1, and poor vision [OSDI 5]≥1 at baseline. Significant improvement was shown in VISTA-2 with pANCOVA=0.0143. […]

[3] = test system: eye; conditions: cited from earlier work
[4] = test system: subjects with dry eye syndrome; test: VISTA-1 clinical study (NCT03764735): central corneal fluorescein staining; assay type: in vivo, human; conditions: for Change from baseline in central corneal fluorescein staining, ANCOVA model LS Mean (SE) / Difference in Means, Active - Placebo (two-sample t-test), central corneal fluorescein staining change: 57 days, mITT; for Change from baseline in central corneal fluorescein staining, Mean (SD): after 57 days, mITT population, scale 0-4; for Change from baseline in central fluorescein staining, LS Mean: ITT subgroup, observed data only
Excerpt: The VISTA-1 clinical study (NCT03764735) evaluated ophthalmic solutions with different concentrations of SkQ1 for various aspects of safety and effectiveness compared to placebo (vehicle) for treatment of various signs and symptoms of DED. The vehicle was an artificial tear treatment used as a control.
The VISTA-1 study reported change of level of corneal fluorescein staining from baseline to day 57. The level of corneal fluorescein scale ranged from 0 to 4, where level 0=none and level 4=severe. VISTA-1 reported a change in symptoms such as subject-reported grittiness from baseline to day 57, where the scale ranged from 0 to 5 for each symptom, where 0=none and 5=worst. Study subjects were carefully monitored for any adverse events.
as §1, §2, §3

[5] = 1.55 μg/mL SkQ1, ITT subgroup Schirmer's ≥7 mm at baseline
[6] = 1.55 μg/mL SkQ1, ITT subgroup Schirmer's ≥7 mm at baseline, of 78 subjects
[7] = VISTA-1, 1.55 μg/mL SkQ1, ITT subgroup Schirmer's ≥7 mm at baseline
[8] = VISTA-1, 1.55 μg/mL SkQ1, ITT subgroup Schirmer's ≥7 mm at baseline, of 46 subjects

SkQ1
Proportion of Subjects with Fluorescein Staining in the Central Region (>0 Score) [1, 5]: (83.3%) | Proportion of Subjects without Fluorescein Staining in the Central Region (=0 Score) [1, 5]: (16.7%) | Number of Subjects with Fluorescein Staining in the Central Region (>0 Score) [1, 6]: 65 | Number of Subjects without Fluorescein Staining in the Central Region (=0 Score) [1, 6]: 13 | Change from baseline in central fluorescein staining, LS Mean ([1]; unanesthetized Schirmer's test <7 mm at baseline): −0.156 | Change from baseline in central fluorescein staining, LS Mean ([1]; unanesthetized Schirmer's test ≥7 mm at baseline): −0.43 | Odds Ratio, Logistic Regression, clearing of central corneal fluorescein staining, 1.55 μg/mL SkQ1 - Placebo ([1]; ITT subgroup Schirmer's ≥7 mm at baseline): 6.73 | BCVA-logMAR change from baseline, LS Mean (SE) ([2]; 1.55 μg/mL SkQ1, ITT subgroup Schirmer's <7 mm): −0.0 (0.0137) | BCVA-logMAR change from baseline, LS Mean (SE) ([2]; 1.55 μg/mL SkQ1, Visit 3, ITT subgroup Schirmer's ≥7 mm): −0.012 (0.0143) | dose at which mild ocular toxicity is observed ([3]; in vivo): 45 μg/eye/day | no observed adverse effect level (NOAEL) for ocular toxicity ([3]; per eye per day): 4.5 μg/eye/day | Change from baseline in central corneal fluorescein staining, ANCOVA model LS Mean (SE) ([4]; 0.155 μg/mL SkQ1): −0.31 (0.059) | Difference in Means, Active - Placebo (two-sample t-test), central corneal fluorescein staining change ([4]; 0.155 μg/mL SkQ1): −0.02 | Change from baseline in central corneal fluorescein staining, ANCOVA model LS Mean (SE) ([4]; 0.155 μg/mL SkQ1, listed as SkQ): −0.31 | Change from baseline in central corneal fluorescein staining, Mean (SD) ([4]; 0.155 μg/mL SkQ1 ophthalmic solution BID): −0.30 (0.816) | Change from baseline in central corneal fluorescein staining, ANCOVA model LS Mean (SE) ([4]; 1.55 μg/mL SkQ1): −0.20 (0.058) | Difference in Means, Active - Placebo (two-sample t-test), central corneal fluorescein staining change ([4]; 1.55 μg/mL SkQ1): 0.08 | Change from baseline in central corneal fluorescein staining, ANCOVA model LS Mean (SE) ([4]; 1.55 μg/mL SkQ1, listed as SkQ6): −0.20 | Change from baseline in central corneal fluorescein staining, Mean (SD) ([4]; 1.55 μg/mL SkQ1 ophthalmic solution BID): −0.20 (0.763) | Treatment effect on the central fluorescein staining sign of dry eye vs placebo ([4]; 0.155 and 1.55 μg/mL SkQ1 ophthalmic solution, all treatment groups): no statistically significant beneficial treatment effect | Proportion of Subjects with Fluorescein Staining in the Central Region (>0 Score) [4, 7]: (84.8%) | Proportion of Subjects without Fluorescein Staining in the Central Region (=0 Score) [4, 7]: (15.2%) | Number of Subjects with Fluorescein Staining in the Central Region (>0 Score) [4, 8]: 39 | Number of Subjects without Fluorescein Staining in the Central Region (=0 Score) [4, 8]: 7 | Change from baseline in central fluorescein staining, LS Mean ([4]; VISTA-1, 1.55 μg/mL SkQ1, unanesthetized Schirmer's test <7 mm at baseline): −0.20 | Change from baseline in central fluorescein staining, LS Mean ([4]; VISTA-1, 1.55 μg/mL SkQ1, unanesthetized Schirmer's test ≥7 mm at baseline): −0.46 | Odds Ratio, Logistic Regression, clearing of central corneal fluorescein staining, 1.55 μg/mL SkQ1 - Placebo ([4]; VISTA-1, ITT subgroup Schirmer's ≥7 mm at baseline): 7.57
